We go through one molecule from EP4772530A1, “PEPTIDE TARGETING SOMATOSTATIN RECEPTOR, DRUG CONJUGATE AND USE THEREOF” (Mainline Biosciences (Shanghai) Co., Ltd., priority 2023, dated 2025).

One experiment deals with T1, SSTR2 (Homo sapiens, UniProt P30874).
T1 construct: expressed in transfected cells; host or cells: CHO cells (SSTR2/CHO)
As to the kind of experiment: SSTR2 cAMP test. It counts as cell-based. To be noted: Max Dose 50000 nM. As to the method: • 1) Compound preparation: The test compound was diluted by 4-fold with DMSO to obtain 10 different concentration points. Approximately 100 nL of the diluted compound was then transferred to a cell reaction plate and centrifuged for later use. • 2) Cell preparation:The cultured SSTR2/CHO cells were collected into a sterile centrifuge tube, and the supernatant was discarded by centrifugation. • 3) The cells were resuspended in assay buffer, counted using a Vi-cell counter, and diluted with assay buffer. • 4) Approximately 100 nL of 100 µM Forskolin was transferred into the cell reaction plate using an Echo and centrifuged. Then, 10 µL of assay buffer containing the cells was added and incubated. • 5) Approximately 10 µL of cAMP detection reagent solution was added to the corresponding wells of the cell reaction plate, and incubated at room temperature in the dark. • 6) The plate was read using a microplate reader. The final value was determined as the ratio of OD at 665 nm to that at 615 nm. • 7) The cAMP value was calculated for each well: Activity (%)=(signal value of sample well - mean signal value of low-signal control wells)/ (mean signal value of high-signal control wells - mean signal value of low-signal control wells). Fitting was performed using the "Nonlinear regression (curve fit)-log(agonist) vs. response -- Variable slope" model in GraphPad Prism 5.0, with the log-transformed compound concentration on the x-axis and cAMP activation rate on the y-axis. The EC50 value of the sample was calculated accordingly. Table 2: SSTR2 cAMP Test Results

Experiment [1] deals with Human multiple myeloma MM.1S cells. Nature of the experiment: EX3.3 in vivo pharmacodynamics, MM.1S subcutaneous xenograft model. The settings on record: for Tumor Volume (Mean ± SEM): IV, Twice Weekly. Further details: species or system CB17 SCID mice. As to the method: Human multiple myeloma MM.1S cells were suspended and cultured in vitro in 1640 medium containing 10% fetal bovine serum, 100 U/mL penicillin, and 100 µg/mL streptomycin in a 5% CO2 incubator at 37°C. The suspended cells were collected by centrifugation twice a week and adherent cells were digested with trypsin-EDTA to prepare a cell suspension for subculture. When the cell saturation was 80%-90% and the cell number reached the requirement, the cells were collected, counted, and inoculated.
CB17 SCID mice, female, 6-8 weeks old, weighing 18-22 g, provided by Zhejiang Vital River Laboratory Animal Technology Co., Ltd.
Each mouse was subcutaneously injected with 100 µL of PBS containing 5×10^6 MM.1S cells + 100 µL of Matrigel (final volume: 200 µL) at the axilla of the right forelimb. At 20 days after injection, when the average tumor volume reached 109 mm^3, mice were grouped for dosing (vehicle control,Ixazomib Citrate, and Example 1 treatment groups, with 6 animals per group). The Ixazomib Citrate group was orally administered by gavage (4 mg/kg) twice a week; the vehicle control group (5%DMSO + 95% normal saline) and the Example 1 treatment group (1.75 mg/kg) were slowly intravenously injected for about 30 seconds each time, twice a week.
The experimental indicators were used to investigate whether tumor growth was inhibited, delayed, or cured. The tumor diameter was measured twice a week using a vernier caliper. The tumor volume was calculated as follows: V = 0.5a×b^2, where a and b were the long and short diameters of the tumor, respectively.
The anti-tumor efficacy of the drug was evaluated based on TGI (%) or relative tumor proliferation rate T/C (%). TGI (%) was the tumor growth inhibition rate. TGI (%) was calculated as follows: TGI (%)=[(1 -(mean tumor volume at the end of dosing in a certain treatment group - mean tumor volume at the start of dosing in the treatment group))/ (mean tumor volume at the end of dosing in the vehicle control group - mean tumor volume at the start of dosing in the vehicle control group)]× 100%.
T/C (%) was calculated as follows:T/C (%)= TRTV/ CRTV× 100 %. Based on the results of tumor measurement, the relative tumor volume (RTV) was calculated as follows: RTV = Vt/V0, where V0 was the mean tumor volume measured at the time of grouping (i.e. d0), and Vt was the mean tumor volume at a certain measurement. Data on the same day were taken for TRTV and CRTV.
Tumor weights were measured at the end of the experiment and T/Cweight was calculated, where Tweight and Cweight were tumor weights in the treatment and vehicle control groups, respectively.
Statistical analysis, including the mean and standard error (SEM) of tumor volume at each time point in each group (see Table 5-1 in Section 5.2 for specific data), was performed to evaluate differences between groups based on data from the treatment group on Day 18 post-dose at the end of the experiment. A t-test was used for comparison between two groups, and one-way ANOVA was used for comparison among three or more groups. If there was a significant difference in F value, the Games-Howell method was used for testing; if there was no significant difference in F value, the Dunnet (2-sided) method was used for analysis. All data were analyzed using SPSS 17.0.

Another experiment has as its system HL-60. Nature of the experiment: Cell killing in HL-60 by CCK-8. It counts as cell-based. The settings on record: HL-60, 48 h. As to the method:
• a) Cell line: HL-60 • b) Procedure • (1) Normally cultured HL-60 cells in the logarithmic growth phase were centrifuged at 800 rpm for 5 min to discard the supernatant. Approximately 3 mL of normal medium was added to resuspend the cell pellet by gently pipetting up and down. The cells were then counted using a cell counter and inoculated onto a 96-well plate. • (2) Sample solutions with different concentration gradients were prepared. Approximately 10 µL of each solution was added to the 96-well plate, with 3 to 6 replicate wells for each concentration, and incubated in a 5% CO2 incubator at 37°C for 48 h. • (3) CCK-8 was equilibrated to room temperature before use, and 10 µL of CCK-8 solution was added to each well. • (4) The plate was incubated in the incubator for 0.5-4 h in the dark, with the incubation time depending on experimental conditions such as cell type and density. • (5) The absorbance was measured at 450 nm using a microplate reader. • c) Data analysis Cell viability = [(As−Ab)/(Ac−Ab)] × 100% [formula] Inhibition% = [(Ac−As)/(Ac−Ab)] × 100% [formula] • As: absorbance of sample well (containing cells + medium + CCK-8 solution + drug solution); • Ac: absorbance of control well (containing cells + medium + CCK-8 solution); • Ab: absorbance of blank well (containing medium + CCK-8 solution); • The results were processed and analyzed using Excel and Graphpad Prism to obtain the IC50. Table 4: Test Results of Cell Killing in HL-60 for 48 h

The mark [2] stands for this setting: 18 days after the start of dosing, Example 1 1.75 mg/kg IV twice a week.

Structures are written as SMILES. Several values for one entry are separate records, joined by “and”; a condition that tells them apart may be missing. Equal values may be shown once. Entries after “also recorded” stand apart in the source; their conditions may differ.

T1 sequence (P30874 whole entry): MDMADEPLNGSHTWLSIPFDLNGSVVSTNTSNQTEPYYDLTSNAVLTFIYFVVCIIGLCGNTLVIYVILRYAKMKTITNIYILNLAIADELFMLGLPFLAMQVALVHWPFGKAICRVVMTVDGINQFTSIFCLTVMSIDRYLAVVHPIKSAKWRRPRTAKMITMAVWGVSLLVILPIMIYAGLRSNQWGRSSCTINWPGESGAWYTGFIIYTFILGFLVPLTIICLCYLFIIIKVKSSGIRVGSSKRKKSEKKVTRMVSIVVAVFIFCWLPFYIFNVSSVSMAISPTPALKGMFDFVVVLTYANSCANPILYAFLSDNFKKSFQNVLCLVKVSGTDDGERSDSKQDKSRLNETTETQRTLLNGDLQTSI

Molecule `CC[C@H](C)[C@@H]([C@@H](CC(=O)N1CCC[C@H]1[C@H](OC)[C@@H](C)C(=O)N[C@H](C)[C@@H](O)c1ccccc1)OC)N(C)C(=O)[C@@H](NC(=O)[C@H](C(C)C)N(C)C(=O)OCc1ccc(NC(=O)[C@H](CCCNC(N)=O)NC(=O)[C@@H](NC(=O)CCCCCN2C(=O)CC(SC[C@H](NC(C)=O)C(=O)NCCOCCOCC(=O)N[C@@H](CCCNC(=N)N)C(=O)N[C@@H](CCCNC(=N)N)C(=O)N[C@@H](CC(C)C)C(=O)N[C@@H](Cc3ccccc3)C(=O)N[C@H]3CSSC[C@@H](C(=O)N[C@H](C(=O)N[C@@H](Cc4c[nH]c5ccccc45)C(=O)N[C@@H](CCCNC(=N)N)C(=O)N[C@@H](CC(=O)O)C(N)=O)[C@@H](C)O)NC(=O)[C@H]([C@@H](C)O)NC(=O)[C@H](CCCCN)NC(=O)[C@@H](Cc4c[nH]c5ccccc45)NC(=O)[C@H](Cc4ccc(O)cc4)NC3=O)C2=O)C(C)C)cc1)C(C)C` (stereo partly drawn) [Example 1, Cys(MC-Val-Cit-PABC-MMAE)-AEEA-Arg-Arg-Leu-Phe-[Cys-Tyr-D-Trp-Lys-Thr-Cys]-Thr-Trp-Arg-Asp-NH2] came in with an activity at 50 µM on SSTR2 of 93.9%. The T/C in experiment [1] (setting [2]) is 0.94%. Moreover, the TGI in experiment [1] (setting [2]) was 103.59%. Moreover, in experiment [1] (18 days after the start of dosing, Example 1 1.75 mg/kg, p= 0.010, 1.75 mg/kg), the “tumor inhibition compared to the vehicle control group” value is given as “significant tumor inhibition; also recorded: significant anti-tumor effect”. The “Tumor Volume (Mean ± SEM)” value is 144 ± 14 mm3 in experiment [1] (Day 4, Example 1 1.75 mg/kg); 124 ± 13 mm3 in experiment [1] (Day 7, Example 1 1.75 mg/kg); 87 ± 11 mm3 in experiment [1] (Day 11, Example 1 1.75 mg/kg); 50 ± 8 mm3 in experiment [1] (Day 14, Example 1 1.75 mg/kg); 23 mm3 and 23 ± 5 mm3 in experiment [1] (Day 18, Example 1 1.75 mg/kg, 1.75 mg/kg); 12 ± 5 mm3 in experiment [1] (Day 21, Example 1 1.75 mg/kg). The “Tumor Volume (Mean ± SEM)” value in experiment [1] (Day 25, Example 1 1.75 mg/kg) was 0 ± 0 mm3; in experiment [1] (Day 28, Example 1 1.75 mg/kg) it was 0 ± 0 mm3. Besides, the complete response rate in experiment [1] (Example 1 1.75 mg/kg) is 100%. For the same molecule, the complete response result in experiment [1] (Example 1 1.75 mg/kg, 6 animals in the group) is “all achieved a complete response”. In addition, the “Bottom (Inhibition at Lowest Point)” value in the experiment on HL-60 is recorded as 1.71. In addition, in the experiment with HL-60, the “Top (Inhibition at Highest Point)” value is listed as 86.42.
